Test results from US8580493B2, “Screening for compounds that modulate GPR3-mediated beta-arrestin signaling and amyloid beta peptide generation” (VIB VZW, priority 2009, dated 2013).

Tests used:
[1] = tested on: β-arrestin 2 recruitment to GPR3; experiment: PathHunter β-arrestin assay after siRNA transfection of the CHO GPR3 β-arrestin 2 cell line; type: cell-based, Chinese hamster; settings: PathHunter CHO GPR3 β-arrestin 2 cells, 20 μg siRNA, FIG. 5
Excerpt: A modified β-galactosidase complementation assay, referred to as PathHunter™ technology, is another preferred assay method (Olson and Eglen 2007). The principle of the assay is the detection of an interaction between GPR3 and β-arrestin following receptor activation. The assay is unique because it provides a direct measure of β-arrestin binding, whereas imaging assays detect the movement of β-arrestin. […] The assay makes use of a low affinity peptide derived from the amino-terminus of Escherichia coli β-galactosidase, which is tethered to the carboxy-terminus of GPR3 (ProLink™ tag), and a w-deletion mutant of β-galactosidase, which is fused to β-arrestin (enzyme acceptor or EA). The use of the low-affinity ProLink™ peptide ensures that the enzyme fragment complementation (EFC) reaction is driven by the receptor-stimulated, reversible interaction of GPR3 with β-arrestin and not by β-galactosidase complementation in the absence of receptor stimulation. Thus, complementation between β-arrestin and GPR3 results in the formation of a functional enzyme that is capable of hydrolyzing a substrate and generating a chemiluminescent signal. Given the finding that β-arrestin modulates Aβ release, the PathHunter™ β-arrestin assay would facilitate the identification of potential allosteric modulators of Aβ generation. […]

[2] = tested on: Aβ generation in CHO/β-arrestin 2/GPR3 cells; experiment: Aβ1-40 and Aβ1-42 ELISA of culture supernatants after siRNA transfection of CHO/β-arrestin 2/GPR3 cells; type: cell-based, Chinese hamster; settings: 20 μg siRNA, FIG. 6
Excerpt: Chemically synthesized, double-stranded siRNAs targeting β-arrestin 1 or 2 with 19-nucleotide duplex RNA and 2-nucleotide 3′-dTdT overhangs containing fluorescent tags to determine transfection efficiency were purchased from Qiagen. The sequences of the siRNA have been previously described (Aim et al. 2003; 2004; see also Table 1). As a control, non-silencing siRNA with the sequence 5′-[…]-3′ (SEQ ID NO:10) was used in the experiment. The PathHunter™ Chinese hamster ovary (CHO) GPR3 β-arrestin 2 cell line, which stably expresses GPR3 and β-arrestin 2, was transfected with 20 μg of siRNA using the GeneSilencer Transfection reagent (Genlantis) as previously described by Aim et al. (2003). Forty-eight hours following transfection, cells were divided into six-well and 96-well plates for further experiments. Twenty-four hours after plating, cells were placed in serum-free medium for an additional 24 hours. The PathHunter™ β-arrestin assay was performed on the cells in the 96-well plate to determine the extent of β-arrestin 2 recruitment to GPR3 following a reduction in the expression of β-arrestin 1 or β-arrestin 2.
Culture supernatant samples were collected from cells seeded in the six-well plates to determine the effect of a reduction in β-arrestin 2 recruitment to GPR3 on Aβ1-40 and Aβ1-42 generation. […]

[3] = tested on: Aβ generation in HEK293 APP695 cells; experiment: Aβ1-40 and Aβ1-42 ELISA of culture supernatants after siRNA transfection of HEK293 APP695 cells; type: cell-based; settings: HEK293 APP695 cells co-transfected with human GPR3 plasmid, 20 μg siRNA
Excerpt: FIGS. 1A and 1B: Effect of siRNA-mediated β-arrestin depletion on Aβ1-40 (FIG. 1A) and Aβ1-42 (FIG. 1B) generation in HEK293 APP695 cells. Cells were transfected with pcDNA or GPR3, and siRNA targeting β-arrestin 1, 2, both, or a non-silencing (control) RNA duplex prior to measurement of Aβ1-40 (FIG. 1A) and Aβ1-42 (FIG. 1B) secretion in cell culture supernatants by ELISA. The results are expressed as the mean percentage ±SD of three independent experiments performed in duplicate relative to non-silencing siRNA (control).
Chemically synthesized, double-stranded siRNAs targeting β-arrestin 1 or 2 with 19-nucleotide duplex RNA and 2-nucleotide 3′-dTdT overhangs containing fluorescent tags to determine transfection efficiency were purchased from Qiagen. The sequences of the siRNA have been previously described (Ahn et al. 2003; 2004; see also Table 1). As a control, non-silencing siRNA with the sequence 5′-[…]-3′ (SEQ ID NO:10) was used in the experiment. […]
To directly determine the requirement of β-arrestin 1 or 2 for constitutive and GPR3-mediated Aβ generation, Aβ levels were measured in HEK293 APP695 cells following transfection with siRNA that specifically targets either β-arrestin 1 or 2 or both. β-arrestin 2 siRNA reduced constitutive Aβ1-40 and Aβ1-42 generation. […]

Question: Which results are given for “5′-AAAGCCUUCUGCGCGGAGAAU-3′ [β-arrestin 1 siRNA]”?
Answer: β-arrestin 2 recruitment to GPR3 (chemiluminescent signal) [1]: clear increase; Aβ1-40 generation [2]: did not affect; Aβ1-42 generation [2]: modestly stimulated; Aβ1-40 generation with GPR3 co-transfection ([3]; FIG. 1A): further reduction; Aβ1-42 generation with GPR3 co-transfection ([3]; FIG. 1B): further reduction
